These results are taken from ChEMBL document CHEMBL3886411, “Heterocyclic derivative and pharmaceutical composition comprising the same” (2015).

For the test, the target named is T1, P2X purinoceptor 3 (Homo sapiens, UniProt P56373).
T1 sequence (P56373 whole entry): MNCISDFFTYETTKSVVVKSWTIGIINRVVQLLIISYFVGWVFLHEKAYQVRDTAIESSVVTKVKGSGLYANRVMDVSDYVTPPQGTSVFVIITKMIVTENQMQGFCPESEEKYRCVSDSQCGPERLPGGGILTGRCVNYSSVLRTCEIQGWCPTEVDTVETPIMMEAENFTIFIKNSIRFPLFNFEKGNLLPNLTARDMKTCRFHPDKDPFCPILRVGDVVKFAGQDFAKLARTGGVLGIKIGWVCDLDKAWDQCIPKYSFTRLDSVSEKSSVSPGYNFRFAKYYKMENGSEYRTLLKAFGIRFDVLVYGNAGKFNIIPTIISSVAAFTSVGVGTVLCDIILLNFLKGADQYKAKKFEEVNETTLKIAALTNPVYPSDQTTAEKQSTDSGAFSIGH
The test can be described thus: Inhibition Assay: Stably expressing cell line (C6BU-1 cell transfected with human P2X3 receptor gene (GenBank accession number Y07683) was used. The cells were seeded in a 96-well microtiter plate at a concentration of 8000 cells/well and cultured in the medium (8.3% fetal bovine serum, 8.3% horse serum, 1% antibiotic and antifungal in DMEM) for one day at 37° C. under 5% carbon dioxide atmosphere. The medium was replaced with 4 μM Fluo-3-AM solution (20 mM HEPES, 137 mM NaCl, 2.7 mM KCl, 0.9 in M MgCl2, 5.0 mM CaCl2, 5.6 D-glucose, 2.5 mM probenecid, 1.0% BSA, and 0.08% Pluronic F-127, pH 7.5) and incubated at 37° C. under 5% dioxide carbon atmosphere for one hour. The plate was washed with washing buffer (20 mM HEPES, 137 mM NaCl, 2.7 mM KCl, 0.9 mM MgCl2, 5.0 mM CaCl2, 5.6 mM D-glucose, 2.5 mM probenecid, pH 7.5), and each well was added with 40 μL of this buffer. The plate was placed in High-Throughput Screening System FDSS 3000 (Hamamatsu Photonics K.K.). Measurement of fluorescence inte.

Broadly, the IC50 is the concentration at which inhibition is half-maximal. Read a high IC50 as a need for much substance. As for `CCOC(=O)c1cnc(Nc2ccc(OC(C)C)c(F)c2)n(Cc2ccc(Cl)cc2)c1=O`, the 50% inhibitory concentration (IC50) came out at 71 nM.
`CCOC(=O)c1cn(Cc2ccc(Cl)cc2)c(Nc2ccc(OC(C)C)c(F)c2)nc1=O` returned a half-inhibitory concentration (IC50) of 108 nM.
`CCOC(=O)Nc1cnc(Nc2ccc(OC(C)C)c(F)c2)n(Cc2ccc(Cl)cc2)c1=O` displayed an IC50 of 33 nM.
